According to a melting point compilation (Tetko et al.; mined from patent text by program, amines drawn as free bases though some values may be those of a salt):

melting point [°C] | SMILES
260 to 262 | O=C1CC2(C(=O)N1)C(=O)N1CCOc3cc(Cl)cc2c31 (stereo unspecified)
106 to 109 | CCCCCCCCCCCCCCOc1ccc(CC(=O)Nc2ccc(-n3ccnc3C)cc2)cc1
111 to 114 | NCCNC(=O)c1cc2c(Oc3ccc(Cl)cc3)cncc2s1
170 to 172 | CCOc1cc2nc(CN(C)C)nc(Nc3cccc(-c4csc(C)n4)c3)c2cc1OCC
84 to 85 | O=C(OC1CCCCC1=O)c1ccc(Cl)cc1 (stereo unspecified)
36 | COc1ccc(Cl)cc1C(=O)NCCc1ccc(CCCCCCC(=O)O)cc1
100 | O=C(O)CC(CC(=O)O)C(F)(F)F
238 | c1ccc(Nc2nc(-c3cn[nH]c3)c(N3CCCCC3)s2)nc1
150 | c1ccc2c(c1)cnc1nnnn12
102 | Cc1ccc(C2=NC(C)(C)C(c3ccncc3)C2)cc1 (stereo unspecified)
185 to 187 | C#CCN(Cc1cc2c(=O)[nH]c(CO)nc2cc1Cl)c1ccc(C(=O)OC(C)(C)C)cc1
274 to 275 | CN1C[C@@H]2C[C@H]1CN2c1cc2c(cc1F)c(=O)c(C=O)cn2C1CC1
134 | O=C1C(O)OC=CN1Cc1ccccc1 (stereo unspecified)
79.6 to 80.5 | CC(=O)Oc1cn(C(C)=O)c2ccccc12
79 to 84 | CCN1C(=O)C(C)(C)C(=O)N(C)c2cc(CN(CCn3ccc4oc(C)cc4c3=O)Cc3cccc(C=O)c3)ccc21
140 | CSc1ncc(C(O)c2ccc(C)nc2)c(O)n1 (stereo unspecified)
187 | CON(C)C(=O)c1cc2sc(C)c(N(C)S(=O)(=O)c3cccs3)c2[nH]1
180 to 183 | CCc1nsc(NC(=O)C(C)c2ccc3oc(-c4c(Cl)cccc4Cl)nc3c2)c1Cl (stereo unspecified)
215 to 220 | CC[C@@H](C)NC1=NS(=O)(=O)c2sc(Cl)cc2N1
96 | Cc1ccc2c(c1)c1cc(Br)ccc1n2C(=O)OC(C)(C)C
80 to 85 | CCCCCCCCCCCCOc1ccc(C=C(C(=O)OCC(O)CO)C(=O)OCC(O)CO)cc1 (stereo unspecified)
147 to 149 | OC(CNC1=NCCN1)c1ccccc1 (stereo unspecified)
84 to 85 | COC(=O)CCON1C(C)(C)CC(OCc2ccc(COC3CC(C)(C)N(OCCC(=O)OC)C(C)(C)C3)cc2)CC1(C)C
147 to 148 | Cc1c(OCc2ccccc2)ccc(-c2cc(O)c(SCCc3ccccc3)c(=O)o2)c1O
97 to 98 | CCCC[C@H](NC(=O)[C@H](CC(C)C)NC(=O)c1ccc(F)cc1F)C(=O)CSCc1ccco1

melting point [°C] | SMILES
253 to 254 | O=C(O)c1ccc2c(c1)nc(-c1ccc(Oc3cccc(-c4cccc(Cl)c4)c3)cc1)n2C1CCCCC1
162 to 163 | CC12C=CCC1c1ccc3cc(O)ccc3c1CC2 (stereo unspecified)
138 to 140 | Cc1ccn(-c2ccc(C)c(C(=O)c3cccc4c3Nc3ncccc3CN4)c2)n1
173 to 175 | CC1Nc2ccc(-c3ccc(F)c(Cl)c3)cc2C(C)(C)O1 (stereo unspecified)
129 to 131 | CCNc1cc(N2CCN(C(=O)OC(C)(C)C)CC2)c(F)cc1[N+](=O)[O-]
119 to 120 | Cc1ncnn1-c1ccccc1C#N
154 to 157 | CN1C(=O)CCN(c2ccc(Cl)cc2Cl)C1=O
269 to 271 | FC(F)(F)Oc1ccc(-c2csc(Nc3cc4ccccc4cn3)n2)cc1
85 to 87 | Cc1ccc(C#Cc2cc3ccccc3s2)s1
133 to 139 | COc1ccc(-c2ccc3c(c2)C=C(C(=O)Nc2ccc(CN(C)C4CCC(=O)CC4)cc2)CCS3)cc1
104 to 106 | ON=C1CCN(CC2CCCO2)CC1 (stereo unspecified)
140 | COc1cc(CC(C#N)=CNc2ccccc2)c2c(c1OC)OC(C1CC1)C=C2 (racemic)
159 to 160 | Cn1ccc2cccc(C(=O)N3CCN(c4ncccn4)CC3)c21
163 | Nc1cc(=O)n(Cc2cccc([N+](=O)[O-])c2)[nH]1
> 280 | CC1(C)CC2(CCNCC2)C(=O)O1
250 to 252 | CCOC(=O)CN1C(=O)C(=S2CN(CC)c3ccccc32)SC1=S (stereo unspecified)
201 | CC(C)C(=CC(N)C(=O)O)CP(=O)(O)O (stereo unspecified)
60 to 64 | CCCCCCCCCCOc1ccc(-c2nc(-c3c(Cl)cccc3Cl)nn2C)cc1
125 to 128 | O=C(c1ccn2c1CSC2c1cccnc1)c1c[nH]c2cc(-c3ncccn3)ccc12 (stereo unspecified)
145 to 146 | CCOC(=O)Nc1nc(Cc2ccccc2)c(C(=O)c2sc(NC(=O)OCC)nc2Cc2ccccc2)s1
194 to 195 | CS(=O)(=O)NCc1cc(-c2ccccc2)c2c(n1)OCCN(Cc1cc(C(F)(F)F)cc(C(F)(F)F)c1)C2=O
108 to 110 | CC(C(=O)O)c1ccc(C=C2CCCCC2=O)cc1 (stereo unspecified)
> 210 | CCCCCCCCCCOc1cc2oc3ccc(C(=O)O)cc3c(=O)c2cc1CCC(=O)O
114 to 116 | CCS(=O)(=O)N1CCNC1=O
90 | N#Cc1ccc(N(N)Cc2ccc(Br)cc2)cc1

melting point [°C] | SMILES
120 to 121 | COCCN1C(C)=C(C(=O)OC)C(CCOC)(c2ccccc2Cl)C(C(=O)OC)=C1C
160 to 161 | COc1ccccc1-c1n[nH]c(-c2ccccc2C)n1
70 to 72 | CCCCCCC(C(=O)OCC)n1c(C(F)(F)C(F)(F)F)nc2cc(-c3ccccc3-c3nn[nH]n3)ccc21 (stereo unspecified)
146 | COC1=CC(OC)(OC)C(I)C=C1C(=O)OCC(=O)c1ccccc1 (stereo unspecified)
164 to 165 | Nc1ccc(CCC(=O)Nc2ccc(Cl)cc2Cl)cc1[N+](=O)[O-]
293 to 295 | c1ccc2nc(-c3cc4nccnc4[nH]3)ccc2c1
150 to 151 | CN(C)C(=O)C(N)=NNc1ccc(Cl)cc1C(=O)c1ccccc1Cl
134 to 135 | COC(=O)c1cccc2oc(-c3ccccc3O)nc12
258 to 260 | N#Cc1cc(C(F)(F)F)[nH]c1-c1ccc(Cl)c([N+](=O)[O-])c1
110 to 111 | CCC(CC)c1nn(-c2ncc(C(F)(F)F)cn2)cc1CCCOc1c(C)cccc1CC(=O)O
31 to 32 | Nc1ccccc1-c1ncco1
249 to 250 | O=C1CCCC2=C1C(c1cccc(Cl)c1)C1=C(CCCC1)N2 (stereo unspecified)
198 | COc1cccc(N(CC(=O)O)C(=O)CN2C(=O)c3ccccc3C2=O)c1
178 to 180 | CC(C)(C)OC(=O)NC(CSCc1ccc(-c2ccc(-c3ccc4c(c3)OCO4)cc2)cc1)C(=O)O (stereo unspecified)
52 | CCCCCCCCC1(C#N)CCC(c2ccc(-c3ccc(CCCC)cc3)cc2)CC1 (stereo unspecified)
86 | CCc1cc2cc([N+](=O)[O-])ccc2o1
136 to 138 | CCSc1cn(C)cc(-c2cccc(C(F)(F)F)c2)c1=S
170 to 172 | COCC(C)(Oc1ccc(CC(=O)Nc2cc(C)cc(C)c2)cc1)C(=O)O (stereo unspecified)
148 to 149 | CCN1C(=O)CCc2cc(Sc3cccc([C@@]4(O)CCO[C@@H](C)C4)c3)ccc21
92 to 97 | COc1cc2c(cc1Nc1ncc(Cl)c(N[C@@H]3CCCC[C@H]3NS(C)(=O)=O)n1)CCN(CC(=O)N(C)C)CC2
135 to 137 | CN(C(CCn1c(=O)[nH]c2cscc2c1=O)C(=O)NO)S(=O)(=O)c1ccc(Oc2ccccc2)cc1 (stereo unspecified)
120 | COc1ccc(C(=O)CN2CCN(C3CCCCO3)C2=O)cc1OC (stereo unspecified)
242 to 243 | COc1cc(-c2c(Cl)c(CN3C(=O)CCC3=O)nc3sc4c(c23)CCN(C(C)=O)C4)ccc1OC(C)C
150 to 152 | Cc1cccc(-c2nnn[nH]2)c1
178 to 180 | CCOC(=O)c1cn(CCF)c2cc(F)c(F)cc2c1=O

melting point [°C] | SMILES
76 to 77 | CC(=O)NCc1ccc(Cl)nc1
104 | CCCc1nc(NC2CC2)nc(N2CCOCC2)n1
148 | CCCn1ncnc1COc1nn2c(-c3ccc(F)cc3)nncc2c1-c1ccccc1F
220 to 221 | O=C(N[C@H](Cc1ccccc1)C(=O)O)OCc1ccc2oc(-c3ccccc3)nc2c1
180 to 182 | CCOC(=O)COc1ccc(C(=O)Nc2cccc(Cl)c2Sc2ccccc2-c2nnn[nH]2)cc1
105 to 106 | CCCc1nn(-c2ccc(C(F)(F)F)cn2)cc1CCCOc1nn(CC)cc1CC(=O)O
172 to 174 | OCC12CC3CC(CC(C3)C1O)C2 (stereo unspecified)
148 to 151 | NC(=O)c1cccc(-c2cccc(O)c2)c1
81.7 to 82.8 | CCCCCS(=O)(=O)NC(=O)CCc1ccc(OCCOC)cc1OCC1CC1
123 | COc1ccc(S(=O)(=O)Nc2c(C(=O)O)cc(C#N)c(Cc3ccccc3)c2C)cc1
192 to 193 | c1ccc(Sc2c(CCc3nc4ccccc4o3)[nH]c3ccccc23)cc1
146 to 147 | CCn1cc(CN(C(=O)C2CCCc3cc(O)ccc32)c2ccc(C(C)C)cc2)cn1 (stereo unspecified)
152 to 155 | O=C(O)Cc1ccc2c(c1)C(=O)c1cc(C(F)(F)F)ccc1CO2
171 to 174 | CC(C)(C)c1ccc2c(c1)OC(C(F)(F)C(F)(F)F)C(C(=O)O)=C2 (stereo unspecified)
132 | Cc1cccc(CNc2ncccc2[N+](=O)[O-])n1
202 to 204 | Cc1ccc(-c2ccc(C(=O)Nc3cc4ncc(CN5CCCC5)cc4cc3F)cc2)cc1
212 to 214 | CCOCc1nc2c(N)nc3ccccc3c2n1CC1(O)CCOCC1
221 to 222 | C[C@@H]1CN(CC(=O)Nc2ccccc2Cl)C[C@H](C)N1c1ncnc2c1ncn2C
200 to 202 | COc1ccc2c(c1)nnc1cc(OC)ccc12
252 to 253 | O=C(O)Cc1c(C(=O)c2ncc[nH]2)[nH]c2cc(Cl)ccc12
228 to 230 | O=c1[nH]c(N2CCOCC2)nc2c1C=CCC2
155 to 160 | Cc1ccccc1-c1cnc(Nc2ccccn2)s1
145 to 147 | CN(CCCCCC(=O)NO)C(=O)/C=C/C=C/c1ccccc1

SMILES | melting point [°C]
CCS(=O)(=O)Nc1cc(Cc2c[nH]cn2)ccc1C | 140 to 152
CCOP(=O)(OCC)N1C(=O)[C@@H](NC(=O)OC(C)(C)C)[C@@H]1C | 101 to 104
CCc1cccc2c1C(=O)N1CCC[C@H]1c1c(C(=O)OC(C)(C)C)ncn1-2 | 155 to 156
